Measurements reported in article PMC9942140 (Journal of medicinal chemistry, 2022).

Biological target: T1, hepatocyte nuclear factor 4α (HNF4α) (Homo sapiens, UniProt P41235)
T1 sequence (P41235 147-377): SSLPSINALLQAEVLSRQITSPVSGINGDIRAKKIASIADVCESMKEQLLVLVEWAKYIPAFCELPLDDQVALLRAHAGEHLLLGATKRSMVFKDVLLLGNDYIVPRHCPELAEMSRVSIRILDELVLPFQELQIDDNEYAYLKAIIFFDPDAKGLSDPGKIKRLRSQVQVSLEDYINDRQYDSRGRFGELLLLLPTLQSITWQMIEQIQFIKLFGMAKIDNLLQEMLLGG
Assay: intrinsic tyrosine/tryptophan fluorescence quenching titration of purified LBD
Type: binding

Kd: 312 nM
SMILES: COc1cc(C)c(C(C)C)cc1S(=O)(=O)N(CC(O)Cn1nnnc1-c1ccccn1)c1ccccc1C (racemic) [compound 33, N-(2-Hydroxy-3-(5-(pyridin-2-yl)-1H-tetrazol-1-yl)propyl)-5-isopropyl-2-methoxy-4-methyl-N-(o-tolyl)benzenesulfonamide]
